According to patent US20060069132A1, “Azolecarboxamide herbicides” (priority 2004, published 2006):

How the values were obtained:
[1] = system: small flower umbrella sedge; test: Test B flooded paddy test; format: in vivo, Cyperus difformis; details: 1000 g ai/ha, visual rating, scale 0 to 100 (0 no effect, 100 complete control), 13 to 15 days
Procedure, shortened: (§1)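 Formulated test chemicals went onto postemergence plants measuring 2 to 18 cm, at one to four leaves. For the paddy assay, species had reached two leaves. Scoring took place 13–15 days later by eye, relative to untreated plants, using 0 for no effect up to 100 for full control.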

wild oat = test: Test B postemergence herbicide test; format: in vivo, Avena fatua; details: scale 0 (no effect) to 100 (complete control)
Procedure, shortened: (§2)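 Visual ratings, 0 (no effect) to 100 (complete control), made versus controls after 13–15 d greenhouse. Paddy plants treated at 2-leaf stage; postemergence plants at 1- to 4-leaf stage, 2–18 cm tall.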

wheat = test: Test B postemergence herbicide test; format: in vivo, Triticum aestivum; parameters: key to Wheat plant response rating: 0 = no effect, 100 = complete control; details: scale 0 (no effect) to 100 (complete control)
Procedure, shortened: as §2

barnyardgrass [2] = test: Test B pre-/postemergence herbicide test; format: in vivo, Echinochloa crus-galli
Procedure, shortened: (§3)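 Plants compared with untreated controls 13–15 days post-treatment and given a visual 0–100 injury score. Applications: preemergence to seeds; postemergence at 1- to 4-leaf (2–18 cm); paddy species flooded, 2-leaf stage. Vehicle non-phytotoxic, surfactant included.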

redroot pigweed = test: Test A pre-/postemergence herbicide test; format: in vivo, Amaranthus retroflexus; details: for Plant response rating, Pigweed: Postemergence; for Pigweed plant response rating: Preemergence
Procedure, shortened: (§4)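 Visual injury rating on a 0–100 scale (0 no effect, 100 complete control) versus untreated controls, about ten days after treatment in greenhouse. Pre: directed soil spray onto seeded sandy loam. Post: spray to runoff on plants 2–10 cm tall at one- to two-leaf stage.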

velvetleaf [3] = test: Test A pre-/postemergence herbicide test; format: in vivo, Abutilon theophrasti; details: for Velvetleaf plant response rating: Preemergence
Procedure, shortened: as §4

giant foxtail [4] = test: Test A pre-/postemergence herbicide test; format: in vivo, Setaria faberi; details: for Plant response rating, Foxtail, Giant: Postemergence; for Foxtail, Giant plant response rating: Preemergence
Procedure, shortened: as §4

large crabgrass [5] = test: Test B pre-/postemergence herbicide test; format: in vivo, Digitaria sanguinalis
Procedure, shortened: (§5)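 Pre: seeds sown, then sprayed. Post: 1–4-leaf plants (2–18 cm) sprayed at the same time. Paddy: flooded, treated at 2-leaf stage. Formulation: non-phytotoxic solvent with surfactant. Greenhouse 13–15 days; visual 0–100 score relative to controls.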

blackgrass = test: Test B postemergence herbicide test; format: in vivo, Alopecurus myosuroides; details: scale 0 (no effect) to 100 (complete control)
Procedure, shortened: as §1

morningglory [6] = test: Test A pre-/postemergence herbicide test; format: in vivo, Ipomoea spp.; details: for Plant response rating, Morningglory: Postemergence; for Morningglory plant response rating: Preemergence
Procedure, shortened: as §4

giant foxtail [7] = test: Test B pre-/postemergence herbicide test; format: in vivo, Setaria faberi
Procedure, shortened: as §5

Surinam grass = test: Test B pre-/postemergence herbicide test; format: in vivo, Urochloa decumbens
Procedure, shortened: as §5

large crabgrass [8] = test: Test A pre-/postemergence herbicide test; format: in vivo, Digitaria sanguinalis; details: for Plant response rating, Crabgrass, Large: Postemergence; for Crabgrass, Large plant response rating: Preemergence
Procedure, shortened: as §4

lambsquarters = test: Test B pre-/postemergence herbicide test; format: in vivo, Chenopodium album
Procedure, shortened: as §5

corn = test: Test B pre-/postemergence herbicide test; format: in vivo, Zea mays
Procedure, shortened: as §5

pigweed = test: Test B pre-/postemergence herbicide test; format: in vivo, Amaranthus retroflexus
Procedure, shortened: as §5

morningglory [9] = test: Test B pre-/postemergence herbicide test; format: in vivo, Ipomoea coccinea
Procedure, shortened: as §3

rice [10] = test: Test B flooded paddy test; format: in vivo, Oryza sativa; details: 1000 g ai/ha, visual rating, scale 0 to 100 (0 no effect, 100 complete control), 13 to 15 days
Procedure, shortened: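 Plants grow to 1- to 4-leaf stage (2–18 cm) for postemergence spraying, or to 2-leaf stage for the paddy test. Formulated compound is applied. Greenhouse holding lasts 13–15 days. Response is scored visually relative to controls, 0 no effect to 100 complete control; a dash means no result.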

ducksalad = test: Test B flooded paddy test; format: in vivo, Heteranthera limosa; details: 1000 g ai/ha, visual rating, scale 0 to 100 (0 no effect, 100 complete control), 13 to 15 days
Procedure, shortened: as §1

barnyardgrass [11] = test: Test A pre-/postemergence herbicide test; format: in vivo, Echinochloa crus-galli; details: for Plant response rating, Barnyardgrass: Postemergence; for Barnyardgrass plant response rating: Preemergence
Procedure, shortened: as §4

rice [12] = test: Test B pre-/postemergence herbicide test; format: in vivo, Oryza sativa
Procedure, shortened: as §5

barnyardgrass [13] = test: Test B flooded paddy test; format: in vivo, Echinochloa crus-galli; details: 1000 g ai/ha, visual rating, scale 0 to 100 (0 no effect, 100 complete control), 13 to 15 days
Procedure, shortened: as §1

velvetleaf [14] = test: Test B pre-/postemergence herbicide test; format: in vivo, Abutilon theophrasti
Procedure, shortened: as §5

cocklebur = test: Test B pre-/postemergence herbicide test; format: in vivo, Xanthium strumarium
Procedure, shortened: as §3

[15] = Postemergence, 500 g ai/ha, visual rating after 13 to 15 days
[16] = postemergence, 125 g ai/ha, visual rating
[17] = Postemergence, 500 g ai/ha, visual rating after 13 to 15 days, scale 0 (no effect) to 100 (complete control)
[18] = Preemergence, 500 g ai/ha, scale 0 to 100
[19] = postemergence, 125 g ai/ha, visual rating, scale 0 (no effect) to 100 (complete control)
[20] = preemergence, 125 g ai/ha, 0 to 100 scale, 0 is no effect, 100 is complete control
[21] = 500 g ai/ha, 0 to 100 scale, 0 no effect, 100 complete control
[22] = 2000 g ai/ha, 0 to 100 scale, 0 no effect, 100 complete control
[23] = 500 g ai/ha, visual rating, 0 to 100 scale (0 no effect, 100 complete control)

CCN(CC)C(=O)c1cc(NC(=O)c2cc(C(C)(C)C)nn2CC)ccc1F [Compound 59]
Sedge, Umbrella plant response rating [1]: 0 | Plant response rating, Oat, Wild (wild oat; [15]): 20 | Oat, Wild plant response rating (wild oat; [16]): 10 | Plant response rating, Wheat (wheat; [15]): 10 | Wheat plant response rating (wheat; [16]): 0 | Plant response rating, Barnyardgrass (barnyardgrass [2]; [17]): 20 | Barnyardgrass plant response rating (barnyardgrass [2]; [18]): 70 | Barnyardgrass plant response rating (barnyardgrass [2]; [19]): 0 | Plant response rating, Barnyardgrass (barnyardgrass [2]; [20]): 10 | Plant response rating, Pigweed (redroot pigweed; [21]): 40 | Plant response rating, Pigweed (redroot pigweed; [22]): 75 | Pigweed plant response rating (redroot pigweed; [23]): 90 | Pigweed plant response rating (redroot pigweed; [22]): 100 | Plant response rating, Velvetleaf (velvetleaf [3]; Postemergence, 2000 g ai/ha, 0 to 100 scale, 0 no effect, 100 complete control): 20 | Velvetleaf plant response rating (velvetleaf [3]; [23]): 15 | Velvetleaf plant response rating (velvetleaf [3]; [22]): 55 | Plant response rating, Foxtail, Giant (giant foxtail [4]; [21]): 15 | Plant response rating, Foxtail, Giant (giant foxtail [4]; [22]): 20 | Foxtail, Giant plant response rating (giant foxtail [4]; [23]): 5 | Foxtail, Giant plant response rating (giant foxtail [4]; [22]): 65 | Plant response rating, Crabgrass, Large (large crabgrass [5]; [17]): 20 | Crabgrass, Large plant response rating (large crabgrass [5]; [18]): 20 | Crabgrass, Large plant response rating (large crabgrass [5]; [19]): 10 | Plant response rating, Crabgrass, Large (large crabgrass [5]; [20]): 10 | Plant response rating, Blackgrass (blackgrass; [15]): 0 | Blackgrass plant response rating (blackgrass; [16]): 0 | Plant response rating, Morningglory (morningglory [6]; [21]): 10 | Plant response rating, Morningglory (morningglory [6]; [22]): 10 | Morningglory plant response rating (morningglory [6]; [23]): 10 | Morningglory plant response rating (morningglory [6]; [22]): 40 | Plant response rating, Foxtail, Giant (giant foxtail [7]; [17]): 20 | Foxtail, Giant plant response rating (giant foxtail [7]; [18]): 40 | Foxtail, Giant plant response rating (giant foxtail [7]; [19]): 0 | Plant response rating, Foxtail, Giant (giant foxtail [7]; [20]): 0 | Plant response rating, Surinam Grass (Surinam grass; [17]): 20 | Surinam Grass plant response rating (Surinam grass; [18]): 10 | Surinam Grass plant response rating (Surinam grass; [19]): 10 | Plant response rating, Surinam Grass (Surinam grass; [20]): 0 | Plant response rating, Crabgrass, Large (large crabgrass [8]; [21]): 15 | Plant response rating, Crabgrass, Large (large crabgrass [8]; [22]): 20 | Crabgrass, Large plant response rating (large crabgrass [8]; [23]): 25 | Crabgrass, Large plant response rating (large crabgrass [8]; [22]): 45 | Plant response rating, Lambsquarters (lambsquarters; [17]): 90 | Lambsquarters plant response rating (lambsquarters; [18]): 100 | Lambsquarters plant response rating (lambsquarters; [19]): 80 | Plant response rating, Lambsquarters (lambsquarters; [20]): 90 | Plant response rating, Corn (corn; [17]): 20 | Corn plant response rating (corn; [18]): 0 | Corn plant response rating (corn; [19]): 10 | Plant response rating, Corn (corn; [20]): 0 | Plant response rating, Pigweed (pigweed; [17]): 80 | Pigweed plant response rating (pigweed; [18]): 100 | Pigweed plant response rating (pigweed; [19]): 70 | Plant response rating, Pigweed (pigweed; [20]): 100 | Plant response rating, Morningglory (morningglory [9]; [17]): 20 | Morningglory plant response rating (morningglory [9]; [18]): 10 | Morningglory plant response rating (morningglory [9]; [19]): 20 | Plant response rating, Morningglory (morningglory [9]; [20]): 0 | Rice plant response rating (rice [10]): 0 | Ducksalad plant response rating (ducksalad): 0 | Plant response rating, Barnyardgrass (barnyardgrass [11]; [21]): 20 | Plant response rating, Barnyardgrass (barnyardgrass [11]; [22]): 30 | Barnyardgrass plant response rating (barnyardgrass [11]; [23]): 25 | Barnyardgrass plant response rating (barnyardgrass [11]; [22]): 60 | Rice plant response rating (rice [12]; [18]): 0 | Plant response rating, Rice (rice [12]; [20]): 0 | Barnyardgrass plant response rating (barnyardgrass [13]): 0 | Plant response rating, Velvetleaf (velvetleaf [14]; [17]): 20 | Velvetleaf plant response rating (velvetleaf [14]; [18]): 40 | Velvetleaf plant response rating (velvetleaf [14]; [19]): 20 | Plant response rating, Velvetleaf (velvetleaf [14]; [20]): 10 | Plant response rating, Cocklebur (cocklebur; [17]): 40 | Cocklebur plant response rating (cocklebur; [18]): 0 | Cocklebur plant response rating (cocklebur; [19]): 10 | Plant response rating, Cocklebur (cocklebur; [20]): 0
